# Measurements as given in publication PMC4338649 (International Journal of Endocrinology and Metabolism, 2014).
# Test system: infants with central diabetes insipidus
# Test: Pharmacodynamics
# Format: in vivo
# Settings: Case 2, IV administration of dDAVP; confirmed diagnosis of CDI
substance,measurement,value
desmopressin [dDAVP],urine output and osmolality after IV administration,Normalization of urine output and osmolality
